Results reported in ChEMBL document CHEMBL1201862, “PubChem BioAssay data set” (2004).
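Step 1: Grow cells in 96-well plates. Step 2: Expose to compound for 48 hours at 5 concentrations. Step 3: Interpolate endpoints linearly; if unreached, use highest concentration. GI50: concentration for 50% inhibition of growth.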 Active and inactive are the calls of the source. Rule as the data show it: active = GI50 up to about 1.1 µM and inactive = higher.

Tests used:
Experiment in all cases: NCI anticancer screen, dose series, 48 h
A498 = test system: A498
A549 = test system: A549
BT-549 = test system: BT-549
COLO 205 = test system: COLO 205
HL-60 = test system: HL-60
HOP-92 = test system: HOP-92
HT-29 = test system: HT-29
IGROV-1 = test system: IGROV-1
LOX IMVI = test system: LOX IMVI
MOLT-4 = test system: MOLT-4
NCI-H460 = test system: NCI-H460
NCI/ADR-RES = test system: NCI/ADR-RES
OVCAR-3 = test system: OVCAR-3
OVCAR-4 = test system: OVCAR-4
SK-MEL-28 = test system: SK-MEL-28
SK-MEL-2 = test system: SK-MEL-2
SK-MEL-5 = test system: SK-MEL-5
SNB-75 = test system: SNB-75
T47D = test system: T47D
UACC-257 = test system: UACC-257

Measured: GI50

CO/N=C\c1cc(O)c(O)c(/C=N/OC)c1
inactive: A498 49.1 µM | A549 26 µM | BT-549 > 100 µM | COLO 205 37.9 µM | HL-60 3.48 µM | HOP-92 61.1 µM | HT-29 40.5 µM | IGROV-1 27.4 µM | LOX IMVI 41.3 µM | MOLT-4 8.17 µM | NCI-H460 23.1 µM | NCI/ADR-RES 30.6 µM | OVCAR-3 4.82 µM | OVCAR-4 24.9 µM | SK-MEL-28 > 100 µM | SK-MEL-2 > 100 µM | SK-MEL-5 55.7 µM | SNB-75 87.5 µM | T47D 26.1 µM | UACC-257 > 100 µM

Cc1cc(NC(=O)C(=O)Cc2cnc3ccccc3n2)c(S(=O)(=O)O)cc1Cl
inactive: A498 > 100 µM | A549 > 100 µM | BT-549 > 100 µM | COLO 205 > 100 µM | HL-60 > 100 µM | HOP-92 > 100 µM | HT-29 > 100 µM | IGROV-1 > 100 µM | LOX IMVI > 100 µM | MOLT-4 > 100 µM | NCI-H460 > 100 µM | NCI/ADR-RES > 100 µM | OVCAR-3 > 100 µM | OVCAR-4 > 100 µM | SK-MEL-28 > 100 µM | SK-MEL-2 > 100 µM | SK-MEL-5 > 100 µM | SNB-75 > 100 µM | T47D > 100 µM | UACC-257 > 100 µM

O=C1/C(=C/c2ccccc2S)N=C(c2ccccc2)N1c1nc2c(Cl)cc(Cl)cc2s1
inactive: A498 18.3 µM | A549 21.9 µM | BT-549 26.7 µM | COLO 205 21.7 µM | HL-60 16.4 µM | HOP-92 19.5 µM | HT-29 18.4 µM | IGROV-1 20.9 µM | LOX IMVI 20.4 µM | MOLT-4 12.6 µM | NCI-H460 27.5 µM | NCI/ADR-RES 26.8 µM | OVCAR-3 17.3 µM | OVCAR-4 28.4 µM | SK-MEL-28 35.4 µM | SK-MEL-2 24 µM | SK-MEL-5 17.7 µM | SNB-75 30.1 µM | T47D 31.7 µM | UACC-257 28.9 µM

CN(C)CCCCN1c2ccccc2Sc2ccc(C(=O)c3ccccc3)cc21
inactive: A498 13.8 µM | A549 3.47 µM | BT-549 6.01 µM | COLO 205 1.64 µM | HL-60 1.85 µM | HOP-92 2.44 µM | HT-29 1.89 µM | IGROV-1 2.9 µM | LOX IMVI 1.8 µM | MOLT-4 2.21 µM | NCI-H460 2.24 µM | NCI/ADR-RES 4.39 µM | OVCAR-3 3.98 µM | OVCAR-4 3.23 µM | SK-MEL-28 1.95 µM | SK-MEL-2 2.71 µM | SK-MEL-5 1.82 µM | SNB-75 2.34 µM | T47D 3.59 µM | UACC-257 1.94 µM
